Measured values from US20240271096A1, “EFFICIENT DIFFERENTIATION OF SECOND HEART FIELD CARDIAC PROGENITOR CELLS AND RIGHT VENTRICLE CARDIOMYOCYTES FROM HUMAN PLURIPOTENT STEM CELLS” (Wisconsin Alumni Research Foundation, priority 2023, published 2024).

Columns and labels:
[1] = system: HES3-TBX5-TdTomato^+/W/NKX2-5^eGFP/W reporter hESC line; test: NKX2-5-eGFP and TBX5-tdTomato reporter expression during GiWi cardiac differentiation (fluorescence microscopy); format: cell-based, human
Excerpt: Human iPSCs (hiPSCs) were established from a healthy donor (FIG. 1), 201B7 hiPSCs (RIKEN BRC, Tsukuba, Japan), and HES3-TBX5-TdTomato^+/W/NKX2-5^eGFP/Wreporter hESCs that were a kind gift from Dr. Reza Ardehali, UCLA Geffen School of Medicine (Pezhouman et al., 2022, Cardiovasc Res. 118(3):828-43), were used. HiPSCs were maintained on iMatrix-511 (Matrixome, Osaka, Japan)-coated 6-well plates (Corning, Glendale, Arizona, United States) in StemFit AK02N (Ajinomoto, Tokyo, Japan) and passaged every 7 days.
HESCs were maintained on Matrigel Growth Factor Reduced Basement Membrane Matrix (Corning)-coated 6-well plates (Corning) in StemFlex Medium (Thermo Fisher Scientific, Waltham, MA, United States) and passaged every 3-4 days. StemPro Accutase Cell Dissociation Reagent (Thermo Fisher Scientific) was used for dissociation. 10 μmol/L Y27632 (Tocris, Bristol, United Kingdom) was used for improvement of cell survival for 24 hours after seeding. Mycoplasma tests were performed for all the cell culture in this study.
For LV-cardiomyocyte differentiation, cardiac differentiation was performed according to the protocol published by (Lian et al., 2012, Proc Natl Acad Sci USA 109:E1848-57). Cells were dissociated with StemPro Accutase Cell Dissociation Reagent at 37° C. for 5 minutes. HESCs were seeded on Matrigel-coated 24-well plates (Corning) in StemFlex Medium supplemented with 10 μmol/L Y-27632. HiPSCs were seeded on iMatrix-511-coated 12-well plates (Corning) in StemFit AK02N supplemented with 10 μmol/L Y-27632 at seeding densities of 1×10^5 cells/cm^2 for hESCs and 1.25-2.5×10^4 cells/cm^2 for hiPSCs. Cells were cultured for 4 days until the start of differentiation (day 0). On day 0, the medium was changed to RPMI 1640 Medium (Thermo Fisher Scientific) supplemented with B-27 Supplement minus insulin (Thermo Fisher Scientific) (RPMI/B27-insulin) or B-27 Supplement with insulin (Thermo Fisher Scientific), and 12 μmol/L CHIR 99021 (SelleckChem, Houston, TX, United States), and the cells incubated in this medium for 24 h (day 1). On day 1, the medium was changed to RPMI/B27-insulin. To enhance cardiac differentiation, 50 μmol/L 2-O-α-D-glucopyranosyl-L-ascorbic acid (Tokyo Chemical Industry, Tokyo, Japan) was added on day 1 only for hiPSCs (Burridge et al., 2014 Nat Methods, 11:855-860). On day 3, the medium was changed to RPMI/B27-insulin supplemented with 5 μmol/L IWP2 (SelleckChem) and on day 5, the medium was changed to 1 ml RPMI/B27-insulin. From day 7, the cells were cultured with RPMI/B27-insulin, and the cells were fed every other day. On day 12, the cells were washed with PBS (Thermo Fisher Scientific) and cultured with DMEM or RPMI, no glucose supplemented with 8 mmol/L L-(+)-Lactic acid (Merck) (Tohyama et al., 2013 Cell Stem Cell, 12:127-37). The medium was changed every other day until day 17. After day 17, the cells were cultured with RPMI/B27 and fed every 2 to 3 days. For long-term culture, the cells were dissociated with TrypLE™ Select Enzyme (10×) (Thermo Fisher Scientific) at 37° C. for 15-20 minutes and seeded on Matrigel- or iMatrix-511-coated plates. For RV-cardiomyocyte induction, Dorsomorphin 2HCl (SelleckChem), dorsomorphin homologue 1 (DMH1) (SelleckChem), or 3 μg/L insulin were used from day 0 to day 1. For FIG. 15A and FIG. 15B, dorsomorphin (DM) or 3 μg/L insulin were added on day 0 (for 24 hours), 1, 3, or 5 (for 48 hours).

SMAD1/5 = test: Western blotting of SMAD1/5 phosphorylation in GiWi protocol; format: cell-based, human; settings: insulin added on differentiation day 0; measured on day 3
Excerpt: Using the cell lysis solution contained in the Minute Total Protein Extraction Kit for Animal Cultured Cells/Tissues (Invent Biotechnologies, Plymouth, MN, United States) with Protease Inhibitor Cocktail Set III (×100) (Fujifilm Wako Pure Chemical Corporation, Osaka, Japan) and Phosphatase Inhibitor Cocktail Solution II (×100) (Fujifilm Wako Pure Chemical Corporation), cells at day 3 of differentiation were lysed and proteins were extracted according to the manufacturer's instructions. Protein concentration was measured with a Pierce BCA Protein Assay Kit (Thermo Fisher Scientific), iMark microplate reader and Microplate Manager 6 software (Bio-Rad, Hercules, CA, USA). Fifty micrograms of protein combined with Laemmli sample buffer (Bio-Rad) were boiled at 95° C. for 5 minutes and then loaded onto 10% Mini-PROTEAN TGX Precast Gels (Bio-Rad). Proteins were transferred to nitrocellulose membranes and blocking was performed using Tris buffered saline with Tween20 with 5% nonfat dry milk for 1 hour at room temperature. […] Immunoblotted proteins were detected by ECL Prime Western blotting detection reagents and ImageQuant LAS4000 mini (GE Healthcare, Chicago, IL, USA).

[2] = 3 μg/mL insulin on day 0, read day 13
[3] = B-27 supplement containing insulin on differentiation day 0, read day 7 (cardiac progenitor stage)
[4] = B-27 supplement containing insulin on differentiation day 0, read day 14 (cardiomyocyte stage)

Substance: insulin
- Nkx2.5-eGFP expression [1, 2]: strong
- TBX5-tdTomato expression [1, 2]: without TBX5-tdTomato expression
- eGFP and TBX5-tdTomato expression ([1]; 10 μg/mL insulin on day 0, read day 13): very low
- TBX5-tdTomato expression, dose dependence ([1]; 0.1, 0.3, 1, and 3 μg/mL insulin on day 0, read day 13): decreased with increasing doses
- NKX2-5-eGFP expression [1, 3]: low
- TBX5-tdTomato expression [1, 3]: low
- NKX2-5-eGFP expression [1, 4]: high
- TBX5-tdTomato expression [1, 4]: low
- phosphorylation of SMAD1/5 (SMAD1/5): suppressed
